Legend:
[1] = tested on: brown rust (Puccinia recondita); assay: Action on wheat brown rust; type: in vivo, Puccinia recondita on wheat seedlings ("Kanzler"); conditions: 0.025 wt % spray liquors; sprayed 24 h after infection; assessed after 8 days
Method: Leaves of pot-grown wheat seedlings of the “Kanzler” variety were dusted with spores of brown rust (Puccinia recondita). The pots were then placed for 24 hours at 20° to 22° C. in a high-humidity (90-95%) chamber. During this period the spores germinated and the germ tubes penetrated the leaf tissue. […] After the sprayed-on layer had dried, the plants were set up in the greenhouse at 20° to 22° C. and a relative humidity of 65 to 70%. The extent of rust fungus spread on the leaves was assessed after 8 days.

[2] = tested on: Plasmopara viticola; assay: Action on Peronospora in grapes; conditions: 0.025 wt % spray liquors; leaves infected 8 days after spraying
Method: Leaves of potted vines of the “Müller Thurgau” variety were sprayed with aqueous liquors containing (dry basis) 80% of active ingredient and 20% of emulsifier. To assess the duration of action of the active ingredients, the plants were, after the sprayed-on layer had dried, set up in the greenhouse for 8 days. Only then were the leaves infected with a zoospore suspension of Plasmopara viticola. The vines were then placed for 48 hours in a water-vapor-saturated chamber at 24° C. and then for 5 days in a greenhouse at from 20° to 30° C. To accelerate the sporangiophore discharge, the plants were then again set up in the moist chamber for 16 hours. The extent to which the leaves had been attacked was then assessed.

[3] = tested on: Pyricularia oryzae; type: in vivo, Pyricularia oryzae on rice seedlings ("Bahia"); conditions: 0.05 wt % spray liquors; protective, inoculated 24 hours after spraying; assessed after 6 days
[4] = tested on: Plutella maculipennis (diamondback moth); assay: Plutella maculipennis (diamondback moth); ingestion-inhibiting action; type: in vivo; conditions: Plutella maculipennis 4th-stage caterpillars on dipped kohlrabi leaves, after 48 hours
Method: Young kohlrabi leaves are dipped for 3 seconds into aqueous solutions of the candidate compounds, and then placed on a round filter paper 9 cm in diameter which has been moistened with 0.5 ml of water. The filter paper is then placed in a Petri dish 10 cm in diameter. 10 caterpillars in the 4th larval stage are then placed on each leaf and the Petri dish is closed. Ingestion inhibition is determined in % after 48 hours.

[5] = tested on: Musca domestica (housefly); assay: Musca domestica (housefly); continuous contact action; type: in vivo; conditions: continuous contact in Petri dish, counted after 24 hours
Method: Both the tops and bottoms of Petri dishes 10 cm in diameter were lined with a total of 1 ml of acetonic solutions of the active ingredients. After the solvent had evaporated (about 30 mins.), 10 files and absorbent cotton steeped in water were introduced into each dish and the dishes closed. The flies in supine position were counted after 24 hours.
If a kill rate of 80 to 100% occurs at a concentration of 0.01 mg/dish, the test is continued with falling concentrations.

SMILES | fungicidal action [1] [%] | fungicidal action [2] [%] | fungicidal action [3] [%] | other results
COC=C(C(=O)OC)c1ccccc1CON=C(c1ccccc1)C1CC1 [14 (Table I)] | 95 | 95 |  | 
COC=C(C(=O)OC)c1ccccc1CON=C(c1ccc(Cl)cc1)C1CC1 [16 (Table I)] | 95 | 95 |  | 
COC=C(C(=O)OC)c1ccccc1CON=C(c1ccc(OC)cc1)C1CC1 [17 (Table I)] | 95 | 95 |  | 
CON=C(C(=O)OC)c1ccccc1CON=C(c1ccc(OC)cc1)C1CC1 [17 (Table II)] | 95 | 95 | 100 | 
COC=C(C(=O)OC)c1ccccc1CON=C(C#N)C(C)C [49 (Table I)] | 95 | 95 |  | 
COC=C(C(=O)OC)c1ccccc1CON=C(C#N)OC1CCCCO1 (stereo not shown) [429 (Table I)] | 95 | 95 | 100 | 
COC=C(C(=O)OC)c1ccccc1CON=C(C)c1cccc(C)c1 [616 (Table I)] | 95 | 95 | 100 | 
CON=C(C(=O)OC)c1ccccc1COc1ccccc1 [A, 2-(phenoxymethyl)-phenylglyoxylic acid-methyl ester-O-methyloxime, reference compound] | 50 | 50 |  | 
COC=C(C(=O)OC)c1ccccc1CON=C(c1ccc(F)cc1)C1CC1 [Compound no. 15 (Table I)] | 95 | 95 |  | 
CON=C(C(=O)OC)c1ccccc1CON=C(c1ccc(F)cc1)C1CC1 [Compound no. 15 (Table II)] |  | 95 | 100 | 
CON=C(C(=O)OC)c1ccccc1CON=C(c1ccc(Cl)cc1)C1CC1 [Compound no. 16 (Table II)] |  | 95 | 100 | 
CON=C(C(=O)OC)c1ccccc1CON=C(C#N)C(C)(C)OC [Compound no. 36 (Table II)] |  | 95 |  | 
CON=C(C(=O)OC)c1ccccc1CON=C(C#N)C(C)(C)SC [Compound no. 43 (Table II)] |  | 95 |  | 
CON=C(C(=O)OC)c1ccccc1CON=C(C#N)C(C)C [Compound no. 49 (Table II)] |  | 95 |  | 
CON=C(C(=O)OC)c1ccccc1CON=C(C#N)C1CC1 [Compound no. 56 (Table II)] |  | 95 |  | 
CON=C(C(=O)OC)c1ccccc1CON=C(C#N)c1ccccc1 [Compound no. 117 (Table II)] |  | 95 |  | 
COC=C(C(=O)OC)c1ccccc1CON=C(C#N)c1ccc(F)c(Cl)c1 [Compound no. 156 (Table I)] |  | 95 |  | 
CON=C(C(=O)OC)c1ccccc1CON=C(C#N)OC1CCCCO1 (stereo not shown) [Compound no. 429 (Table II)] |  | 95 |  | 
CON=C(C(=O)OC)c1ccccc1CON=C(C)c1ccc(F)cc1 [Compound no. 571 (Table II)] |  |  | 100 | 
COC=C(C(=O)OC)c1ccccc1CON=C(C)c1ccccc1Cl [Compound no. 573 (Table I)] | 95 | 95 |  | 
COC=C(C(=O)OC)c1ccccc1CON=C(C)c1ccc(Cl)cc1Cl [Compound no. 578 (Table I)] | 95 | 95 |  | 
COC=C(C(=O)OC)c1ccccc1CON=C(C)c1cc(Cl)ccc1Cl [Compound no. 579 (Table I)] |  | 95 |  | 
COC=C(C(=O)OC)c1ccccc1CON=C(C)c1cc(Cl)cc(Cl)c1 [Compound no. 582 (Table I), Methyl 3-methoxy-2-[2′-[1″-(3′″,5′″-dichlorophenyl)-1″-methyl]-iminooxymethyl]-phenylacrylate] | 95 | 95 |  | 

SMILES | fungicidal action [1] [%] | fungicidal action [2] [%] | fungicidal action [3] [%] | other results
CON=C(C(=O)OC)c1ccccc1CON=C(C)c1cc(Cl)cc(Cl)c1 [Compound no. 582 (Table II), Methyl 2-methoximino-2-[2′-(1″-(3′″,5′″-dichlorophenyl)-1″-methyl)-iminooxymethyl]-phenylacetate] |  | 95 | 100 | 
COC=C(C(=O)OC)c1ccccc1CON=C(C)c1ccc(Cl)c(Cl)c1Cl [Compound no. 583 (Table I)] |  | 95 | 100 | 
CON=C(C(=O)OC)c1ccccc1CON=C(C)c1ccc(Cl)c(Cl)c1Cl [Compound no. 583 (Table II)] |  |  | 100 | 
COC=C(C(=O)OC)c1ccccc1CON=C(C)c1cccc(Br)c1 [Compound no. 592 (Table I)] | 95 | 95 | 100 | 
CON=C(C(=O)OC)c1ccccc1CON=C(C)c1cccc(Br)c1 [Compound no. 592 (Table II)] |  |  | 100 | 
COC=C(C(=O)OC)c1ccccc1CON=C(C)c1ccc(Br)cc1 [Compound no. 593 (Table I), Methyl 3-methoxy-2-[2′-(1″-(4′″-bromophenyl)-1″-methyl)-iminooxymethyl]-phenylacrylate] |  | 95 | 100 | 
CON=C(C(=O)OC)c1ccccc1CON=C(C)c1ccc([N+](=O)[O-])cc1 [Compound no. 614 (Table II), Methyl 2-methoximino-2-[2′-(1″-(4′″-nitrophenyl)-1″-methyl)-iminooxymethyl]-phenylacetate] |  | 95 |  | 
CON=C(C(=O)OC)c1ccccc1CON=C(C)c1ccc(C(C)(C)C)cc1 [Compound no. 644 (Table II)] | 95 | 95 | 100 | 
COC=C(C(=O)OC)c1ccccc1CON=C(C)c1ccccc1C(F)(F)F [Compound no. 704 (Table I)] | 95 | 95 |  | 
COC=C(C(=O)OC)c1ccccc1CON=C(C)c1cccc(C(F)(F)F)c1 [Compound no. 705 (Table I)] | 95 | 95 |  | 
COC=C(C(=O)OC)c1ccccc1CON=C(C)c1ccc(C(F)(F)F)cc1 [Compound no. 706 (Table I)] |  | 95 | 100 | 
CON=C(C(=O)OC)c1ccccc1CON=C(C)c1ccc(Oc2ccccc2)cc1 [Compound no. 769 (Table II)] |  |  | 100 | 
CON=C(C(=O)OC)c1ccccc1CON=C(C)c1ccc(C2CCCCC2)cc1 [Compound no. 782 (Table II)] |  |  | 100 | 
COC=C(C(=O)OC)c1ccccc1CON=C(c1ccc(Cl)cc1)C1CC1 [compound 16] |  |  |  | Mortality in % ([4]; application rate 400 ppm): 80%
COC=C(C(=O)OC)c1ccccc1CON=C(C#N)C(C)(C)OC [compound 36] |  |  |  | Mortality in % ([5]; application rate 1.0 ppm): 80%; Mortality in % ([4]; application rate 200 ppm): 80%
CCOC(C)(C)C(C#N)=NOCc1ccccc1C(=COC)C(=O)OC [compound 37] |  |  |  | Mortality in % ([5]; application rate 0.1 ppm): 100%
COC=C(C(=O)OC)c1ccccc1CON=C(C#N)C(C)C [compound 49] |  |  |  | Mortality in % ([5]; application rate 0.1 ppm): 80%; Mortality in % ([4]; application rate 200 ppm): 80%
COC=C(C(=O)OC)c1ccccc1CON=C(C#N)OC1CCCCO1 (stereo not shown) [compound 429] |  |  |  | Mortality in % ([4]; application rate 1000 ppm): 80%
COC=C(C(=O)OC)c1ccccc1CON=C(C)c1cc(Cl)cc(Cl)c1 [compound 582] |  |  |  | Mortality in % ([5]; application rate 0.1 ppm): 80%; Mortality in % ([4]; application rate 400 ppm): 100%
COC=C(C(=O)OC)c1ccccc1CON=C(C)c1cccc(Br)c1 [compound 592] |  |  |  | Mortality in % ([4]; application rate 400 ppm): 80%
COC=C(C(=O)OC)c1ccccc1CON=C(C)c1ccc(Br)cc1 [compound 593] |  |  |  | Mortality in % ([5]; application rate 0.1 ppm): 60%; Mortality in % ([4]; application rate 1000 ppm): 80%
COC=C(C(=O)OC)c1ccccc1CON=C(C)c1cccc(C(F)(F)F)c1 [compound 705] |  |  |  | Mortality in % ([5]; application rate 0.1 ppm): 100%; Mortality in % ([4]; application rate 400 ppm): 80%
COC=C(C(=O)OC)c1ccccc1CON=C(C)c1ccc(C(F)(F)F)cc1 [compound 706] |  |  |  | Mortality in % ([5]; application rate 0.1 ppm): 100%; Mortality in % ([4]; application rate 400 ppm): 80%

From patent publication USRE37839E1, “O-benzyloxime ethers and crop protection agents containing these compounds” (BASF Aktiengesellschaft, priority 1990, dated 2002)
